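Five compound concentrations were applied to cells in 96-well plates for 48 hours; endpoints were derived by simple linear interpolation of the resulting dose-response curve. TGI: total growth inhibition.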
Key:
Experiment in all cases: NCI tumour cell line growth inhibition, 48 h
SK-MEL-5 melanoma = tested on: SK-MEL-5 melanoma
SN12C renal = tested on: SN12C renal
OVCAR-8 ovarian = tested on: OVCAR-8 ovarian
HCC-2998 colon = tested on: HCC-2998 colon
HCT-116 colon = tested on: HCT-116 colon
DU-145 prostate = tested on: DU-145 prostate
MDA-MB-435 = tested on: MDA-MB-435
RXF 393 renal = tested on: RXF 393 renal
OVCAR-4 ovarian = tested on: OVCAR-4 ovarian
PC-3 prostate = tested on: PC-3 prostate
KM12 colon = tested on: KM12 colon
HOP-92 NSCLC = tested on: HOP-92 NSCLC
NCI-H23 lung = tested on: NCI-H23 lung
U251 CNS = tested on: U251 CNS
HL-60(TB) leukemia = tested on: HL-60(TB) leukemia
SF-295 CNS = tested on: SF-295 CNS
SF-268 CNS = tested on: SF-268 CNS
SNB-75 CNS = tested on: SNB-75 CNS
UACC-257 melanoma = tested on: UACC-257 melanoma
HCT-15 colon = tested on: HCT-15 colon

Row | SMILES | TGI (SK-MEL-5 melanoma) [µM] | TGI (SN12C renal) [µM] | TGI (OVCAR-8 ovarian) [µM] | TGI (HCC-2998 colon) [µM] | TGI (HCT-116 colon) [µM] | TGI (DU-145 prostate) [µM] | TGI (MDA-MB-435) [µM] | TGI (RXF 393 renal) [µM] | TGI (OVCAR-4 ovarian) [µM] | TGI (PC-3 prostate) [µM] | TGI (KM12 colon) [µM] | TGI (HOP-92 NSCLC) [µM] | TGI (NCI-H23 lung) [µM] | TGI (U251 CNS) [µM] | TGI (HL-60(TB) leukemia) [µM] | TGI (SF-295 CNS) [µM] | TGI (SF-268 CNS) [µM] | TGI (SNB-75 CNS) [µM] | TGI (UACC-257 melanoma) [µM] | TGI (HCT-15 colon) [µM]
1 | C=C(Cl)C(Br)(CBr)CCC(Br)C(C)(C)Br (stereo not given) | > 10 | > 10 | > 1 | > 10 | 3.92 | > 10 | > 10 | 7.86 | > 10 | > 10 | > 10 | > 10 | > 10 | > 10 | > 1 | > 10 | 6.25 | > 10 | – | –
2 | CC(CCC(=O)O)[C@H]1CCC2[C@H]3C(CC(=O)[C@@]21C)[C@@]1(C)CCC(O)C[C@H]1C[C@@H]3O (stereo not given in full) | – | > 100 | > 100 | > 100 | > 100 | > 100 | > 100 | > 100 | > 100 | > 100 | > 100 | > 100 | > 100 | > 100 | > 100 | – | > 100 | > 100 | > 100 | > 100
3 | COc1ccccc1CNCc1nc2ccccc2[nH]1 | > 100 | > 100 | > 100 | > 100 | > 100 | > 100 | > 100 | > 100 | > 100 | > 100 | > 100 | > 100 | > 100 | > 100 | > 100 | > 100 | > 100 | > 100 | > 100 | > 100
4 | COc1ccc(C(=O)N2CCN(c3ccc4[nH]c(=O)oc4c3)CC2)cc1 | > 100 | > 100 | > 100 | > 100 | > 100 | > 100 | > 100 | – | > 100 | > 100 | > 100 | > 100 | > 100 | > 100 | > 100 | > 100 | > 100 | > 100 | > 100 | > 100
5 | CSc1ccc(-c2cc(-c3nc4ccccc4[nH]3)nc3[nH]c(-c4nc5ccccc5[nH]4)cc(=O)c23)cc1 | – | > 100 | > 100 | 42.7 | > 100 | > 100 | > 100 | > 100 | > 100 | > 100 | > 100 | > 100 | > 100 | > 100 | > 100 | > 100 | > 100 | > 100 | > 100 | > 100
6 | COC(=O)/C(C#N)=C(\Nc1ccccc1)N1CCCCC1 | > 100 | > 100 | > 100 | > 100 | > 100 | > 100 | > 100 | > 100 | > 100 | > 100 | – | > 100 | > 100 | > 100 | > 100 | > 100 | > 100 | > 100 | > 100 | > 100
7 | Nc1c(Cl)c([N+](=O)[O-])cc2c1OCCCCO2 | > 100 | > 100 | > 100 | > 100 | > 100 | > 100 | > 100 | > 100 | > 100 | > 100 | > 100 | > 100 | > 100 | 8.48 | > 100 | > 100 | > 100 | 93 | > 100 | > 100
8 | COc1ccc(NC(C)=O)cc1N1C(=O)/C(=C\c2cc(OC)c(OC)c(OC)c2)S(=O)(=O)C1c1ccccc1 (stereo not given) | > 100 | > 100 | > 100 | > 100 | > 100 | > 100 | > 100 | > 100 | > 100 | > 100 | > 100 | > 100 | > 100 | > 100 | 43 | > 100 | – | > 100 | > 100 | > 100
9 | O=c1[nH]n(Cc2ccccc2CCl)c2ccc([N+](=O)[O-])cc12 | 30.4 | > 100 | > 100 | 42.4 | > 100 | > 100 | > 100 | > 100 | > 100 | > 100 | > 100 | > 100 | > 100 | > 100 | 99.6 | > 100 | > 100 | – | > 100 | > 100
10 | O=C1CCSc2c(cnc3ccccc23)N1 | > 100 | > 100 | > 100 | – | > 100 | > 100 | > 100 | > 100 | > 100 | > 100 | > 100 | > 100 | > 100 | > 100 | > 100 | > 100 | > 100 | > 100 | > 100 | > 100
11 | O=C(Nc1ccccc1)C(=O)C(C(=O)c1ccccc1)C(c1ccccc1)c1ccccc1 (stereo not given) | > 10 | > 10 | > 10 | > 10 | – | > 10 | > 10 | > 10 | > 10 | > 10 | – | > 10 | > 10 | – | > 10 | > 10 | > 10 | > 10 | > 10 | > 10
12 | C/C(=C/CNc1ncnc2c1ncn2CCC#N)CO | > 100 | > 100 | > 100 | > 100 | > 100 | > 100 | > 100 | > 100 | > 100 | > 100 | > 100 | > 100 | > 100 | – | > 100 | > 100 | > 100 | > 100 | > 100 | –

Reference: PubChem BioAssay (NCI)
